# Columns and labels:
# Experiment in all cases: relative viability (nuclei count vs DMSO), 5 days (fraction); higher = more cells survive
# CAP-232 + Palbociclib = compound: C[C@H]([C@@H](C(=O)N)NC(=O)[C@@H]1CSSC[C@@H](C(=O)N[C@H](C(=O)N[C@@H](C(=O)N[C@H](C(=O)N1)CCCCN)CC2=CNC3=CC=CC=C32)CC4=CC=C(C=C4)O)NC(=O)[C@@H](CC5=CC=CC=C5)N)O [CAP-232] + CC(=O)c1c(C)c2cnc(Nc3ccc(N4CCNCC4)cn3)nc2n(C2CCCC2)c1=O [Palbociclib] (partner 0.5 µM)
# Summary of the method: (§1)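 Relative viability is defined as nuclei in treated wells over nuclei in vehicle wells. Duplicate plates were run and medians reported. Lung cancer cell lines in 1536-well plates were dosed by pin tool one day after seeding, with one drug or with a fixed anchor-drug dose plus five library-drug doses (not always all listed) in √10 steps, and nuclei were counted after 5 days.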
# CAP-232 + Bortezomib = compound: C[C@H]([C@@H](C(=O)N)NC(=O)[C@@H]1CSSC[C@@H](C(=O)N[C@H](C(=O)N[C@@H](C(=O)N[C@H](C(=O)N1)CCCCN)CC2=CNC3=CC=CC=C32)CC4=CC=C(C=C4)O)NC(=O)[C@@H](CC5=CC=CC=C5)N)O [CAP-232] + CC(C)C[C@H](NC(=O)[C@H](Cc1ccccc1)NC(=O)c1cnccn1)B(O)O [Bortezomib] (partner 0.002 µM)
# Summary of the method: as §1
# CAP-232 + OSI-027 = compound: C[C@H]([C@@H](C(=O)N)NC(=O)[C@@H]1CSSC[C@@H](C(=O)N[C@H](C(=O)N[C@@H](C(=O)N[C@H](C(=O)N1)CCCCN)CC2=CNC3=CC=CC=C32)CC4=CC=C(C=C4)O)NC(=O)[C@@H](CC5=CC=CC=C5)N)O [CAP-232] + COc1cccc2cc(-c3nc([C@H]4CC[C@H](C(=O)O)CC4)n4ncnc(N)c34)[nH]c12 [OSI-027] (partner 0.5 µM)
# Summary of the method: as §1
# CAP-232 + Tozasertib = compound: C[C@H]([C@@H](C(=O)N)NC(=O)[C@@H]1CSSC[C@@H](C(=O)N[C@H](C(=O)N[C@@H](C(=O)N[C@H](C(=O)N1)CCCCN)CC2=CNC3=CC=CC=C32)CC4=CC=C(C=C4)O)NC(=O)[C@@H](CC5=CC=CC=C5)N)O [CAP-232] + Cc1cc(Nc2cc(N3CCN(C)CC3)nc(Sc3ccc(NC(=O)C4CC4)cc3)n2)n[nH]1 [Tozasertib] (partner 0.1 µM)
# Summary of the method: as §1
# CAP-232 + Pemetrexed = compound: C[C@H]([C@@H](C(=O)N)NC(=O)[C@@H]1CSSC[C@@H](C(=O)N[C@H](C(=O)N[C@@H](C(=O)N[C@H](C(=O)N1)CCCCN)CC2=CNC3=CC=CC=C32)CC4=CC=C(C=C4)O)NC(=O)[C@@H](CC5=CC=CC=C5)N)O [CAP-232] + Nc1nc2[nH]cc(CCc3ccc(C(=O)N[C@@H](CCC(=O)O)C(=O)O)cc3)c2c(=O)[nH]1 [Pemetrexed] (partner 0.2 µM)
# Summary of the method: as §1
Cell Line,relative viability (CAP-232 + Palbociclib; first compound 0.4 µM),relative viability (CAP-232 + Palbociclib; first compound 1.265 µM),relative viability (CAP-232 + Palbociclib; first compound 4 µM),relative viability (CAP-232 + Palbociclib; first compound 12.65 µM),relative viability (CAP-232 + Bortezomib; first compound 0.4 µM),relative viability (CAP-232 + Bortezomib; first compound 1.265 µM),relative viability (CAP-232 + Bortezomib; first compound 4 µM),relative viability (CAP-232 + Bortezomib; first compound 12.65 µM),relative viability (CAP-232 + OSI-027; first compound 0.4 µM),relative viability (CAP-232 + OSI-027; first compound 1.265 µM),relative viability (CAP-232 + OSI-027; first compound 4 µM),relative viability (CAP-232 + OSI-027; first compound 12.65 µM),relative viability (CAP-232 + Tozasertib; first compound 0.4 µM),relative viability (CAP-232 + Tozasertib; first compound 1.265 µM),relative viability (CAP-232 + Tozasertib; first compound 4 µM),relative viability (CAP-232 + Tozasertib; first compound 12.65 µM),relative viability (CAP-232 + Pemetrexed; first compound 0.4 µM),relative viability (CAP-232 + Pemetrexed; first compound 1.265 µM),relative viability (CAP-232 + Pemetrexed; first compound 4 µM),relative viability (CAP-232 + Pemetrexed; first compound 12.65 µM)
NCI-H2347,0.453,0.462,0.412,0.423,1.14,1.19,1.2,0.846,0.29,0.489,0.352,0.614,0.564,0.545,0.517,0.521,0.432,0.436,0.457,0.418
H3255,0.314,0.32,0.329,0.282,0.934,0.816,0.829,0.688,0.567,0.538,0.63,0.811,0.612,0.733,0.791,0.893,0.605,0.549,0.559,0.543
NCI-H441,0.209,0.19,0.257,0.214,0.429,0.357,0.392,0.436,0.527,0.683,0.602,0.686,0.628,0.58,0.571,0.653,0.25,0.234,0.281,0.262
NCI-H2228,1.06,0.803,0.971,0.632,0.9,0.977,1.21,0.74,0.712,0.494,0.665,0.556,0.257,0.28,0.195,0.263,0.447,0.364,0.335,0.358
NCI-H1975,0.664,0.486,0.74,0.324,0.336,0.351,0.416,0.255,0.856,0.646,0.91,0.487,0.968,0.75,0.94,0.482,0.32,0.289,0.307,0.197
NCI-H647,0.34,0.358,0.404,0.284,0.938,0.807,0.931,0.562,0.576,0.775,0.739,0.577,0.216,0.259,0.269,0.276,0.153,0.184,0.182,0.158
A-427,0.528,0.554,0.508,0.467,1.21,0.972,0.993,0.964,0.306,0.458,0.494,0.612,0.164,0.186,0.149,0.207,1.22,0.923,0.974,0.924
LXF-289,0.611,0.625,0.58,0.62,1.06,0.976,0.975,1,0.824,0.721,0.805,0.741,0.206,0.176,0.213,0.149,1.05,0.839,0.904,0.958
NCI-H838,0.228,0.205,0.237,0.212,0.916,0.643,0.86,0.544,0.342,0.434,0.461,0.314,0.274,0.273,0.286,0.231,0.254,0.26,0.245,0.261
NCI-H1437,0.293,0.312,0.315,0.303,0.604,0.584,0.598,0.521,0.94,0.793,0.917,0.698,0.412,0.403,0.461,0.466,0.299,0.288,0.33,0.321
SK-LU-1,0.375,0.398,0.405,0.364,1.53,1.04,1.2,1.3,0.329,0.342,0.308,0.332,0.309,0.314,0.289,0.203,0.916,0.996,1.03,0.658
HCC-44,1,1.05,0.92,0.937,1,0.864,0.948,0.893,0.636,0.507,0.489,0.371,0.919,0.95,1.18,1.09,0.648,0.622,0.626,0.686
EPLC-272H,0.342,0.292,0.297,0.296,0.992,0.878,0.892,0.87,0.275,0.284,0.285,0.262,0.25,0.182,0.288,0.389,–,0.411,0.316,0.178
NCI-H322M,0.494,0.427,0.446,0.508,1.53,1.2,1.14,1.28,0.569,0.528,0.52,0.437,0.448,0.5,0.515,0.498,0.621,0.645,0.599,0.788

# Source: the supplement of paper PMC10307832
